In patent publication US9073917B2, “Anti-cancer compound and pharmaceutical composition containing the same” (SANOFI, priority 2009, dated 2015):
Read-outs that look alike come from different tables or passages of the source.

Columns and labels:
tumour cell line HeLa = test: Cell proliferation, 14C-thymidine incorporation, HeLa; format: cell-based
Excerpt: Measurement of the Cell Proliferation

[1] = Metabolism in the presence of human microsomal liver fractions; format: in vitro ADME; settings: percentage disappearance, 5 μM, 20 minutes; for Human microsome: 1 mg/ml proteins, NADPH
Method: (§1) Evaluation of the Metabolism in the Presence of Microsomal Preparations of Human and Murine Livers.
(§2) The compounds of the invention (5 μM) are incubated at physiological temperature over human and murine microsomal liver fractions (1 mg/ml of proteins), diluted in a phosphate buffer, in the presence of bovine serum albumin (1 mg/ml BSA), and the reduced form of nicotinamide adenine dinucleotide phosphate (1 mM NADPH). To terminate incubation, four volumes of acetonitrile containing corticosterone as internal standard (IS) are added. The samples are centrifuged and the supernatants are analysed by liquid chromatography/tandem mass spectrometry coupling (LC/MS-MS). The LC/MS-MS analysis is performed on a QTRAP API4000 mass spectrometer (Sciex) equipped with an 1100 series chromatography system (Agilent) and a Pal CTC automatic injector. The data are acquired and analysed using Analyst 1.4.1 software. The samples are separated on a 3 μm C18 Polaris column, eluted at a flow rate of 0.7 ml/min with a gradient from acetonitrile (solvent B) into water containing 0.1% formic acid (solvent A). The elution programme is composed of the gradient from 20 to 90% of solvent B in 2 minutes, an isocratic stage at 90% of solvent B, for 0.9 minute, and a return to the initial conditions in 0.1 minute. The area of the chromatographic peaks for the compound and for the internal standard are integrated using the Analyst-Classic algorithm. The metabolic stability of the products of the invention is estimated by comparing the integration ratios (ion currents of the compounds/ion current IS) measured after 0 minute (t0) and 20 minutes (t20) of incubation. The metabolic stability is then expressed as a percentage disappearance in accordance with the following formula: Metabolism %=(ratio of peaks at t0−ratio of peaks at t20)/ratio of peaks at t0

[2] = Metabolism in the presence of murine microsomal liver fractions; format: in vitro ADME; settings: percentage disappearance, 5 μM, 20 minutes; for Mouse microsome: 1 mg/ml proteins, NADPH
Method: as §1, §2

PDE3A = PDE3A (Homo sapiens (Human), UniProt Q14432); test: Effect on the activity of the enzyme PDE3 (CEREP, HTRF); settings: for inhibition at 1 µM: read-out: PDE3 inhibition at 1000 nM; for IC50: read-out: IC50 PDE3, recombinant PDE3A, substrate cAMP
Sequence of PDE3A (Q14432 whole entry, the tested form may be a part): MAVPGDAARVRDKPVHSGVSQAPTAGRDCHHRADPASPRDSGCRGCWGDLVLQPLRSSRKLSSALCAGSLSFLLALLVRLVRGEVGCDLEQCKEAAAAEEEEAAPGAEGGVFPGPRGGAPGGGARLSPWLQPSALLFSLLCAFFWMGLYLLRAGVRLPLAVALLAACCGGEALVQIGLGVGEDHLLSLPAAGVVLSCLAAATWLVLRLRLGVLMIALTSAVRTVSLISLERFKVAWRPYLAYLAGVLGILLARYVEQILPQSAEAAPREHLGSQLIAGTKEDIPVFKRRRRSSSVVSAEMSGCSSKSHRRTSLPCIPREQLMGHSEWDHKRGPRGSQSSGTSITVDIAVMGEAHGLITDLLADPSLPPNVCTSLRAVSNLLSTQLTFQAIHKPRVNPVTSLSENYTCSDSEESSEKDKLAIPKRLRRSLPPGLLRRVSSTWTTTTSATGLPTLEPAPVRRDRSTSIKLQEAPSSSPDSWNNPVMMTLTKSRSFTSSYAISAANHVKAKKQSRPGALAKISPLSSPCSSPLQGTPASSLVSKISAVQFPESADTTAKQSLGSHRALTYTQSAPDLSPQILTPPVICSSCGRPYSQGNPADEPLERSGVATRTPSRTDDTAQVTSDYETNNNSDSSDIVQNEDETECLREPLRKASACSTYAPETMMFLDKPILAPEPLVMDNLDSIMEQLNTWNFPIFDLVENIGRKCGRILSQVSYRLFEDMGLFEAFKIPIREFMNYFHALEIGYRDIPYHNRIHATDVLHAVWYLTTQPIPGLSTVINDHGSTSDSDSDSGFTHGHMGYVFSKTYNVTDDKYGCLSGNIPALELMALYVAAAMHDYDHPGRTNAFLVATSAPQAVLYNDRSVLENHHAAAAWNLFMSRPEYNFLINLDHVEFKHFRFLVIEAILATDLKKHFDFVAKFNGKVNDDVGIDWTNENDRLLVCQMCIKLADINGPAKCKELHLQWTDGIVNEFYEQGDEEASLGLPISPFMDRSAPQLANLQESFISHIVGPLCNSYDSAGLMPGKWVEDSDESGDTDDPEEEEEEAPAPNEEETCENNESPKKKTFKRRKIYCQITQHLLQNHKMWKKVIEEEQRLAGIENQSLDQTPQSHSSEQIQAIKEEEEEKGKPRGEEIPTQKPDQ
Excerpt: Evaluation of the Effect of the Compounds of the Invention on the Activity of the Enzyme PDE3

Aurora B/Incenp = Aurora B/Incenp (Homo sapiens (Human), UniProt Q96GD4); test: Aurora B/Incenp kinase activity, radioactive 33P incorporation into NuMA fragment
Sequence of Aurora B/Incenp (Q96GD4 whole entry, the tested form may be a part): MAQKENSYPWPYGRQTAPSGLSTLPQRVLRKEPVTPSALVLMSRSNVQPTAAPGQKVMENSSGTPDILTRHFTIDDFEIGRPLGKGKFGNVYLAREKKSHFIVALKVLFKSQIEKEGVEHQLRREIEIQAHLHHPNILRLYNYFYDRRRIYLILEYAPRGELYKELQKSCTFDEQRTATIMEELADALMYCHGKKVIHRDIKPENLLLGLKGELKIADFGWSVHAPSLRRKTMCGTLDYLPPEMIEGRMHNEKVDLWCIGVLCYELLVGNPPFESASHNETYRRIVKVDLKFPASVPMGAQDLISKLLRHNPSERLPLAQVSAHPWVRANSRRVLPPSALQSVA
Sequence of Aurora B/Incenp (Q9NQS7 821-918 partner): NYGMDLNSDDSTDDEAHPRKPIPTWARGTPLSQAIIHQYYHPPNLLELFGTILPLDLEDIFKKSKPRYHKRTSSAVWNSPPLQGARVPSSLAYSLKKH
Method: (§3) The kinase activity is measured by a radioactive assay of the amount of radioactive phosphate (^33P) incorporated into a fragment of the protein NuMA (Nuclear Mitotic Apparatus protein) after 30 minutes of incubation at 37° C. […] In each plate, there are eight control wells: four positive controls (maximum kinase activity), for which measurement is made in the presence of enzyme and substrate and in the absence of compound of the invention, and four negative controls (background) for which measurement is made in the absence of enzyme, substrate and test compound.
The two proteins form a complex which is called Aurora B/Incenp. […] This fragment is used as substrate.

[3] = Chemical stability in various media (HPLC); format: physicochemical; settings: 100 μM, 20° C., 48 hours
Method: Measurement of the Chemical Stability of the Compounds
The compounds are diluted in the media under study at a final concentration of 100 μM, by dilution of a 10 mM stock solution in DMSO. The solutions are stored at 20° C. for a total time of 48 hours, and the concentration of the compounds under study is measured over time (t=0, 1, 6, 12, 24 and 48 hours) by HPLC. HPLC analysis is carried out with an Agilent system 1100 instrument equipped with a diode array detector on a Luna 018 column, 30×4.6 mm, 3 μm (Phenomenex) which is eluted with a gradient from acetonitrile (solvent B) into water containing 0.5% (v/v) of formic acid (solvent A) at a flow rate of 1.5 ml/min and a temperature of 25° C. The elution programme consists of a gradient from 10 to 90% solvent B in 5 minutes, followed by an isocratic stage of one minute at 90% of solvent B, and return to the initial conditions over one minute. The concentration of the products under study is estimated from the height and area of the characteristic peak of the product under study on a chromatogram at the maximum wavelength of each product. The area and the height measured at each time of sampling are related to the area and height obtained for the sample at time 0. When degradation is observed, a half-life is measured from the resulting time-concentration curve.

[4] = Clearance in the presence of human hepatocytes; format: in vitro ADME; settings: 0.5 or 5 μM, 24 hours, average over different preparations of hepatocytes
Method: The LC/MS-MS analysis is performed on a QTRAP API4000 mass spectrometer (Sciex) equipped with an 1100 series chromatography system (Agilent) and a Pal CTC automatic injector. The data are acquired and analysed using Analyst 1.4.1 software. The samples are separated on a 3 μm C18 Polaris column, eluted at a flow rate of 0.7 ml/min with a gradient from acetonitrile (solvent B) into water containing 0.1% formic acid (solvent A). The elution programme is composed of the gradient from 20 to 90% of solvent B in 2 minutes, an isocratic stage at 90% of solvent B, for 0.9 minute, and a return to the initial conditions in 0.1 minute.

HCT116 [5] = settings: read-out: IC50 HCT116; HCT116, 96 hours treatment
Method: (§4) The cell proliferation is estimated by the amount of ^14C-thymidine incorporated in the cells.
(§5) D0: the cells are seeded in 96-well Cytostar plates in 180 μL of culture medium. The plates are then placed in an incubator at 37° C., 5% CO2 for four hours. The test products are then added in a volume of 10 μL per well, starting from a 20× solution. This solution contains 2% of DMSO in the culture medium. The final concentration of DMSO is therefore 0.1%. The plates are then placed in an incubator at 37° C./5% CO2 for 72 hours. D3: after 72 hours, 10 μL per well of ^14C-thymidine at 10 μCi/mL in the culture medium are added. The plates are then placed in an incubator at 37° C., 5% CO2 for 24 hours. D4: The incorporation of ^14C thymidine is measured on a Micro-Beta radioactivity counter (Perkin-Elmer) after this 24-hour, “pulse” period. The total time of treatment of the cells with the test product is 96 hours.
(§6) The percentage inhibitions IC50 are calculated in Excel using the following formula:
(§7) [formula] X=Measurement for the Sample CC=Cell Control Blank=Measurement in the wells without cells

Aurora A = Aurora A (Homo sapiens (Human), UniProt O14965); test: Aurora A kinase activity, radioactive 33P incorporation into NuMA fragment
Sequence of Aurora A (O14965 whole entry, the tested form may be a part): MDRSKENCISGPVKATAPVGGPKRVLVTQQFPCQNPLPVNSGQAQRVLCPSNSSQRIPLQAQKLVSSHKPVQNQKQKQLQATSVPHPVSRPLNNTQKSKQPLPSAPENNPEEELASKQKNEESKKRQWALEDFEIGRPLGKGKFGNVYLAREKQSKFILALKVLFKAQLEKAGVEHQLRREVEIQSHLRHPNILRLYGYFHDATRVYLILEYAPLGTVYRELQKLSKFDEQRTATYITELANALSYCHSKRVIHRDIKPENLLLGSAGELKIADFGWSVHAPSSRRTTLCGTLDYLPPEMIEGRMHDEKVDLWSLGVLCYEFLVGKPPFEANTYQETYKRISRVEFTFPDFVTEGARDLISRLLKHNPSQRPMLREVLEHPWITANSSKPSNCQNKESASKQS
Method: as §3
The recombinant human enzyme Aurora A used is expressed in entire form with a poly-Histidine tag in N-terminal position and is produced in E. coli.

HCT116 [6] = test: cells; settings: Homo sapiens, HCT-116, 96 h, read-out: IC50 HCT116
Method: as §4, §5, §6, §7

[7] = Homo sapiens, 96 h, read-out: IC50 HeLa
[8] = Homo sapiens, 96 hours treatment, read-out: IC50 HeLa (converted)
[9] = read-out: IC50 Aurora A, 10 nM Aurora A, 1 μM ATP, 500 nM NuMA, 30 min at 37° C.

SMILES | IC50 (tumour cell line HeLa; [7]) | Human microsome [1] | Mouse microsome [2] | IC50 (Aurora B/Incenp) | IC50 (tumour cell line HeLa; [8]) | also measured
CCOC(=O)c1[nH]cc2c1NC1=C(C(=O)CCC1)C2c1cccc(Oc2nc3ccccc3[nH]2)c1 (racemic) [Example 1, ethyl 8-oxo-9-[3-(1H-benzimidazol-2-yloxy)phenyl]-4,5,6,7,8,9-hexahydro-2H-pyrrolo[3,4-b]quinoline-3-carboxylate] | 205 nM | 37% | 31% | 4 nM |  | inhibition at 1 µM (PDE3A): 78%
CCOC(=O)c1[nH]cc2c1NC1=C(C(=O)CCC1)C2c1cccc(Oc2nc3ccccc3[nH]2)c1 (single isomer, unassigned) [Example 3, ethyl 8-oxo-9-[3-(1H-benzimidazol-2-yloxy)phenyl]-4,5,6,7,8,9-hexahydro-2H-pyrrolo[3,4-b]quinoline-3-carboxylate] | > 10000 nM |  |  | 900 nM |  | 
CCOC(=O)c1[nH]cc2c1NC1=C(C(=O)CCC1)C2c1cccc(Oc2nc3ccccc3[nH]2)c1 (stereo not shown) [Example 2, ethyl 8-oxo-9-[3-(1H-benzimidazol-2-yloxy)phenyl]-4,5,6,7,8,9-hexahydro-2H-pyrrole[3,4-b]quinoline-3-carboxylate] |  | 32% | 50% |  |  | IC50 (tumour cell line HeLa; 96 hours treatment, read-out: IC50 HeLa (converted)): 67 nM; Metabolism measured in the presence of human microsomal fraction [1]: 32%; Metabolism measured in the presence of murine microsomal fraction [2]: 50%; Chemical stability, HCl 0.05N 50/50 water/acetonitrile [3]: stable; Chemical stability, NaOH 0.05N 50/50 water/acetonitrile [3]: stable; Chemical stability, Phosphate buffer 25 mM pH = 7.4 50/50 water/acetonitrile [3]: stable; Chemical stability, Phosphate buffer 25 mM pH = 7.4 + 1% 2-mercaptoethanol 50/50 water/acetonitrile [3]: stable; Chemical stability, Phosphate buffer 25 mM pH = 7.4 + 1% benzylamine 50/50 water/acetonitrile [3]: stable; Intrinsic clearance measured in the presence of human hepatocytes [4]: 0.121 (average of 5 determinations obtained with 5 ml · h^−1 · 10^−6 cells; IC50 (HCT116 [5]): 20 nM; IC50 (PDE3A): 4000 nM; IC50 (Aurora B/Incenp; read-out: IC50 Aurora B/Incenp): 1 nM
CCOC(=O)c1[nH]cc2c1NC1=C(C(=O)CCC1)C2c1cccc(Sc2nc3ccccc3[nH]2)c1 (stereo not shown) [Example 4] | 9660 nM | 77% | 67% | 6 nM |  | 
O=C1CCCC2=C1C(c1cccc(Oc3nc4ccccc4[nH]3)c1)c1c[nH]nc1N2 (stereo not shown) [Example 5] |  |  |  | 6 nM | 9630 nM | IC50 (Aurora A; [9]): 23 nM
O=C1CNCC2=C1C(c1cccc(Oc3nc4ccccc4[nH]3)c1)c1c[nH]nc1N2 (stereo not shown) [Example 6] | > 10000 nM |  |  | 13 nM |  | 
CCOC(=O)c1[nH]cc2c1NC1=C(C(=O)CC(C)(C)C1)C2c1cccc(Oc2nc3ccccc3[nH]2)c1 (stereo not shown) [Example 7] |  | 65% | 96% | 4 nM | 430 nM | IC50 (Aurora A): 3 nM
CCOC(=O)c1[nH]cc2c1NC1=C(C(=O)CC(C)(C)C1)C2c1cccc(Sc2nc3ccccc3[nH]2)c1 (stereo not shown) [Example 8] |  | 80% | 84% | 21 nM | 6860 nM | IC50 (Aurora A): 102 nM
CC1(C)CC(=O)C2=C(C1)Nc1n[nH]cc1C2c1cccc(Oc2nc3ccccc3[nH]2)c1 (stereo not shown) [Example 10] |  |  |  | 9 nM | 6690 nM | IC50 (Aurora A; [9]): 22 nM
CCOC(=O)c1[nH]cc2c1NC1=C(C(=O)CCC1)[C@@H]2c1ccc(Sc2nc3ccccc3[nH]2)o1 [Example 12] | 16 nM | 75% | 81% |  |  | Metabolism measured in the presence of human microsomal fraction [1]: 75%; Metabolism measured in the presence of murine microsomal fraction [2]: 81%; Chemical stability, HCl 0.05N 50/50 water/acetonitrile [3]: stable; Chemical stability, NaOH 0.05N 50/50 water/acetonitrile [3]: stable; Chemical stability, Phosphate buffer 25 mM pH = 7.4 50/50 water/acetonitrile [3]: stable; Chemical stability, Phosphate buffer 25 mM pH = 7.4 + 1% 2-mercaptoethanol 50/50 water/acetonitrile [3]: unstable; Chemical stability, Phosphate buffer 25 mM pH = 7.4 + 1% benzylamine 50/50 water/acetonitrile [3]: stable; Intrinsic clearance measured in the presence of human hepatocytes [4]: 0.29 (average of 3 determinations obtained with 3 ml · h^−1 · 10^−6 cells; IC50 (HCT116 [6]): 1 nM; IC50 (PDE3A): 68 nM
CCOC(=O)c1[nH]cc2c1NC1=C(C(=O)CCC1)C2c1ccc(Sc2nc3cccc(OC)c3[nH]2)o1 (stereo not shown) [Example 13] |  | 53% | 74% | 10 nM | 20 nM | inhibition at 1 µM (PDE3A): 93%
